Source: patent US20240140986A1, “SYNTHETIC URSOLIC ACID DERIVATIVES AND METHODS OF USE THEREOF” (REATA PHARMACEUTICALS, INC., priority 2021, published 2024)
Where two headings read alike, the source gives them in different places.

Experiments:
[1] = tested on: IFNγ-induced NO production in RAW 264.7 cells; assay: Nitric Oxide Suppression Assay (IFNγ-induced NO, Griess nitrite readout); type: cell-based, mouse; settings: for IC50: Mus musculus; for Avg NO IC50 Relative to RTA402 (fold): Table 2, ratio to RTA402
Method: Tissue Culture: RAW 264.7, a mouse macrophage cell line, was obtained from American Type Culture Collection (Manassas VA) and maintained in the log phase of growth in Roswell Park Memorial Institute Medium 1640 (RPMI 1640) supplemented with 10% heat inactivated fetal bovine serum and 1% penicillin-streptomycin. Cells were cultured and maintained in a humidified incubator at 37° C. under 5% C02. Cells were sub-cultured every 2-4 days. All cell culture supplies were obtained from Life Technologies (Grand Island, NY) and VWR (Radnor, PA).
Nitric Oxide Suppression Assay. RAW 264.7 cells were plated 1 day in advance of experimental treatments at a concentration of 30,000 cells per well onto Falcon-96 well clear bottom plates (Corning, NY) in a total volume of 200 μL per well using RPMI 1640 supplemented with 0.5% fetal bovine serum and 1% penicillin-streptomycin. The next day, cells were pretreated with compounds serially diluted from 1000×stocks. All compounds were dissolved in dimethyl sulfoxide (DMSO) usually at 10 mM stock solutions. Compounds were subsequently diluted in DMSO and RPMI 1640. Each well received a final concentration of 0.1% DMSO. Cells were pretreated for 2 hours and incubation at 37° C., followed by treatment with 20 ng/mL of interferon gamma (R&D Systems, Minneapolis, MN) per well for 24 hours. The next day, a nitrite standard was serially diluted from 100 μM to 1.6 μM in RPMI 1640. Afterwards, 50 μL of cell culture supernatant was transferred from each well into a new Falcon-96 well clear bottom plate. Nitrite was measured as surrogate for nitric oxide using Promega's Griess Detection Kit #G2930 (Madison, WI) which involves the addition of 50 μL of the provided sulfanilamide solution to each well of the transferred cell culture supernatant and standards, followed by a 10-minute incubation at room temperature. Next, 50 μL of the provided N-1-napthylethylenediamine dihydrochloride (NED) solution was added to the sulfanilamide reaction and incubated for 10 minutes at room temperature in the dark. Afterwards, air bubbles were removed using ethanol vapor and absorbance was measured using a Spectramax M2e plate reader with a wavelength set to 525 nm. Viability was assessed using WST-1 cell proliferation reagent from Roche (Basel, Switzerland). After media was removed for the Nitric Oxide suppression assay, 15 μL of WST-1 reagent was added to each well of cells. Plates were briefly mixed on an orbital shaker and the cells were incubated at 37° C. for 30-90 minutes. Absorbance was measured using a Spectramax M2e plate reader with wavelengths set to 440 nm and 700 nm.
For the ability of compounds to suppress the increase in nitric oxide release caused by interferon gamma, the absolute amount of nitrite that was produced in each well was extrapolated from the nitrite standards using a linear regression fit. All values were then normalized to the DMSO-interferon gamma treated wells and plotted as percent nitric oxide. IC50 values were calculated using Excel and/or GraphPad Prism (San Diego, CA).

[2] = tested on: Nrf2 / ARE-dependent luciferase in AREc32 reporter cell line; assay: AREc32 luciferase reporter activation (Nrf2 induction); type: cell-based, human; settings: for EC (2-fold): Homo sapiens, Arec32; for Relative Avg AREc32 EC2X Relative to RTA402 (fold): ratio to RTA402
Method: Effect on Ludferase Reporter Activation. Nrf2 is a transcription factor that binds to the antioxidant response element (ARE) sequence in the promoter regions of its target genes. AREc32 reporter cell line (derived from human breast carcinoma MCF7 cells) was obtained was from CXR Bioscience Limited (Dundee, UK) and cultured in DMEM (low glucose) supplemented with 10% FBS, 1% penicillin/streptomycin, and 0.8 mg/ml Geneticin (G418). This cell line is stably transfected with a luciferase reporter gene under the transcriptional control of eight copies of the rat GSTA2 ARE sequence (5′-GTGACAAAGCA-3′) (Wang et al., 2006). Expression of Firefly luciferase from this reporter plasmid is controlled by binding of Nrf2 to these ARE sequences. Measurement of ARE-dependent luciferase activity allows quantitative assessment of Nrf2 induction. AREc32 cell line has previously been used in studies characterizing different Nrf2 activators (Dinkova-Kostova & Wang, 2011; Roubalová et al., 2016; Roubalová et al, 2017; Wu et al, 2012).
The effect of several compounds disclosed herein on luciferase reporter activation was assessed in the AREc32 reporter cell line (see Table 10 and Table 11). This cell line is derived from human breast carcinoma MCF-7 cells and is stably transfected with a luciferase reporter gene under the transcriptional control of eight copies of the antioxidant response element from the rat Gsta2 gene, an Nrf2 target gene (Frilling et al., 1990). AREc32 cells were plated in black 96-well plates in 200 μL media at 20,000 cells per well. Twenty-four hours after plating, cells were treated with vehicle (DMSO) or test compounds at concentrations ranging from 0.03 to 1000 nM for nineteen hours. Media was removed and 100 μL of 1:1 mixture of the One-Glo Luciferase assay reagent and culture medium was added to each well. After incubation for 5 min at room temperature, the luminescence signal was measured on a PHERAstar plate reader. The EC2X value was determined using Excel and GraphPad Prism software. The fold increase in luminescence signal for cells treated with each concentration of compound relative to cells treated with vehicle was determined and a dose-response curve was generated. The dose-response curve was fit using nonlinear regression analysis and used to extrapolate the EC2X value. The EC2X value is defined as the concentration of test compound required to increase the luminescence signal 2-fold above levels in vehicle-treated samples.

[3] = RAW264.7, Table 2, RAW 264.7 cells, 2 h pretreatment, 20 ng/mL interferon gamma 24 h, read-out: Avg NO IC50 (nM) (Mean ± SD)
[4] = RAW264.7, Table 3, ursolic acid derivatives, read-out: Avg NO IC50 (nM) (Mean ± SD)
[5] = Table 2, concentration increasing luminescence 2-fold above vehicle, 19 h treatment, read-out: Avg AREc32 EC2X (nM) (Mean ± SD)
[6] = Table 3, ursolic acid derivatives, read-out: Avg ARE EC-2X (nM) (Mean ± SD)
[7] = RAW264.7, Table 3, oleanolic acid derivative analogs, read-out: Avg NO IC50
[8] = Table 3, oleanolic acid derivative analogs, read-out: Avg ARE EC-2X

| SMILES | IC50 [1, 3] | IC50 [1, 4] | Avg NO IC50 Relative to RTA402 (fold) [1] | EC (2-fold) [2, 5] | EC (2-fold) [2, 6] | Relative Avg AREc32 EC2X Relative to RTA402 (fold) ([2]; Table 2) | IC50 [1, 7] | EC (2-fold) [2, 8] |
| --- | --- | --- | --- | --- | --- | --- | --- | --- |
| CC1(C)CC[C@]2(CN)CC[C@]3(C)[C@H](C(=O)C=C4[C@@]5(C)C=C(C#N)C(=O)C(C)(C)[C@@H]5CC[C@]43C)[C@@H]2C1 [CC21, reference compound] |  |  |  |  |  |  | 3.2 nM | 15.8 nM |
| CC(=O)N(C)C[C@]12CCC(C)(C)C[C@H]1[C@H]1C(=O)C=C3[C@@]4(C)C=C(C#N)C(=O)C(C)(C)[C@@H]4CC[C@@]3(C)[C@]1(C)CC2 [CC35, reference compound] |  |  |  |  |  |  | 0.8 nM | 6.81 nM |
| CC1(C)CC[C@]2(CN3CCCC3=O)CC[C@]3(C)[C@H](C(=O)C=C4[C@@]5(C)C=C(C#N)C(=O)C(C)(C)[C@@H]5CC[C@]43C)[C@@H]2C1 [CC15, reference compound] |  |  |  |  |  |  | 1.1 nM | 6.66 nM |
| C[C@@H]1[C@H]2[C@H]3C(=O)C=C4[C@@]5(C)C=C(C#N)C(=O)C(C)(C)[C@@H]5CC[C@@]4(C)[C@]3(C)CC[C@@]2(N2CCOC2=O)CC[C@H]1C [CC59, reference compound] |  |  |  |  |  |  | 2.2 nM | 23.6 nM |
| Cc1nnc([C@]23CCC(C)(C)C[C@H]2[C@H]2C(=O)C=C4[C@@]5(C)C=C(C#N)C(=O)C(C)(C)[C@@H]5CC[C@@]4(C)[C@]2(C)CC3)o1 [CC69, reference compound] |  |  |  |  |  |  | 2.2 nM | 9.81 nM |
| CC1(C)CC[C@]2(c3nc(C4CC4)no3)CC[C@]3(C)[C@H](C(=O)C=C4[C@@]5(C)C=C(C#N)C(=O)C(C)(C)[C@@H]5CC[C@]43C)[C@@H]2C1 [CC2, reference compound] |  |  |  |  |  |  |  | 43.7 nM |
| CC1(C)CC[C@]2(N3CCCC3=O)CC[C@]3(C)[C@H](C(=O)C=C4[C@@]5(C)C=C(C#N)C(=O)C(C)(C)[C@@H]5CC[C@]43C)[C@@H]2C1 [CC58, reference compound] |  |  |  |  |  |  |  | 37.9 nM |
| CNC(=O)N(C)C[C@]12CCC(C)(C)C[C@H]1[C@H]1C(=O)C=C3[C@@]4(C)C=C(C#N)C(=O)C(C)(C)[C@@H]4CC[C@@]3(C)[C@]1(C)CC2 [CC36, reference compound] |  |  |  |  |  |  |  | 7.23 nM |
| Cc1cn(C[C@]23CCC(C)(C)C[C@H]2[C@H]2C(=O)C=C4[C@@]5(C)C=C(C#N)C(=O)C(C)(C)[C@@H]5CC[C@@]4(C)[C@]2(C)CC3)nn1 [CC49, reference compound] |  |  |  |  |  |  |  | 13.8 nM |
| CC1(C)CC[C@]2(CN3CCC3)CC[C@]3(C)[C@H](C(=O)C=C4[C@@]5(C)C=C(C#N)C(=O)C(C)(C)[C@@H]5CC[C@]43C)[C@@H]2C1 [CC55, reference compound] |  |  |  |  |  |  |  | 22 nM |

More lines, main results first:

| IC50 [1, 3] | IC50 [1, 4] | Avg NO IC50 Relative to RTA402 (fold) [1] | SMILES | EC (2-fold) [2, 5] | EC (2-fold) [2, 6] | Relative Avg AREc32 EC2X Relative to RTA402 (fold) ([2]; Table 2) | IC50 [1, 7] | EC (2-fold) [2, 8] |
| --- | --- | --- | --- | --- | --- | --- | --- | --- |
| 14.8 ± 2.9 nM | 14.8 ± 2.9 nM | 7.06 ± 0.83 fold | CCc1noc([C@]23CC[C@@H](C)[C@H](C)[C@H]2[C@H]2C(=O)C=C4[C@@]5(C)C=C(C#N)C(=O)C(C)(C)[C@@H]5CC[C@@]4(C)[C@]2(C)CC3)n1 [Compound T4] | 19.9 ± 0.2 nM | 19.9 ± 0.2 nM | 1.93 ± 0.23 fold |  |  |
| 17.7 ± 6.9 nM |  | 7.07 ± 1.53 fold | CC(=N)NOC(=O)[C@]12CC[C@@H](C)[C@H](C)[C@H]1[C@H]1C(=O)C=C3[C@@]4(C)C=C(C#N)C(=O)C(C)(C)[C@@H]4CC[C@@]3(C)[C@]1(C)CC2 [Compound T107] | 12.9 ± 1.5 nM |  | 1.17 ± 0.25 fold |  |  |
| 6.42 ± 1.07 nM | 6.42 ± 1.07 nM | 1.84 ± 0.45 fold | C[C@@H]1[C@H]2[C@H]3C(=O)C=C4[C@@]5(C)C=C(C#N)C(=O)C(C)(C)[C@@H]5CC[C@@]4(C)[C@]3(C)CC[C@@]2(CN2NCCC2=O)CC[C@H]1C [Compound T54] | 4.92 ± 1.14 nM | 4.92 ± 1.14 nM | 0.403 ± 0.103 fold |  |  |
| 5.57 ± 2 nM | 5.57 ± 2 nM | 1.66 ± 0.32 fold | CC(=O)N(C)C[C@]12CC[C@@H](C)[C@H](C)[C@H]1[C@H]1C(=O)C=C3[C@@]4(C)C=C(C#N)C(=O)C(C)(C)[C@@H]4CC[C@@]3(C)[C@]1(C)CC2 [Compound T35] | 5.05 ± 1.1 nM | 5.05 ± 1.1 nM | 0.442 ± 0.136 fold |  |  |
| 2.33 ± 1.47 nM | 2.33 ± 1.47 nM | 0.74 ± 0.14 fold | C[C@@H]1[C@H]2[C@H]3C(=O)C=C4[C@@]5(C)C=C(C#N)C(=O)C(C)(C)[C@@H]5CC[C@@]4(C)[C@]3(C)CC[C@@]2(CNC(=O)C2CC2)CC[C@H]1C [Compound T19] | 2.27 ± 0.52 nM | 2.27 ± 0.52 nM | 0.224 ± 0.072 fold |  |  |
| 52.4 ± 13.8 nM |  | 36.7 ± 17^ fold | C[C@@H]1[C@H]2[C@H]3C(=O)C[C@@H]4[C@@]5(C)C=C(C#N)C(=O)C(C)(C)[C@@H]5CC[C@@]4(C)[C@]3(C)CC[C@@]2(CCC(=O)N2CCC2)CC[C@H]1C [Compound T105] | 103 ± 37 nM |  | 10.7 ± 3.3 fold |  |  |
| 2.87 ± 1.67 nM | 2.87 ± 1.67 nM | 0.967 ± 0.21 fold | [2H]C([2H])([2H])C(=O)NC[C@]12CC[C@@H](C)[C@H](C)[C@H]1[C@H]1C(=O)C=C3[C@@]4(C)C=C(C#N)C(=O)C(C)(C)[C@@H]4CC[C@@]3(C)[C@]1(C)CC2 [Compound T24] | 1.49 ± 0.31 nM | 1.49 ± 0.31 nM | 0.126 ± 0.026 fold |  |  |
| 3.58 ± 2.16 nM |  | 0.94 ± 0.14 fold | CC(=O)NC[C@]12CC[C@@H](C)[C@H](C)[C@H]1[C@H]1C(=O)C=C3[C@@]4(C)C=C(C#N)C(=O)C(C)(C)[C@@H]4CC[C@@]3(C)[C@]1(C)CC2 [Compound T22] | 2.99 ± 1.62 nM |  | 0.244 ± 0.080 fold |  |  |
